The results in this text go back to patent publication US9452986B2, “6-heteroaryloxy- or 6-aryloxy-quinoline-2-carboxamides and method of use” (AbbVie Inc., priority 2014, dated 2016).

Read-outs that look alike come from different tables or passages of the source.

Experiment [1] has as its target recombinant human Nav1.7 (Homo sapiens (Human), UniProt Q15858). Kind of experiment: FRET-based membrane potential assay, recombinant human sodium channel Nav1.7. The format is cell-based. The conditions noted are these: read-out: FRET-Membrane Potential Nav1.7 IC50. The essentials: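 Channel activation used veratridine at its EC80, set by a dilution curve each experiment, together with Leiurus scorpion venom, added 3 min after compound. Membrane-potential ratio signals from FLIPR Tetra in HEPES-buffered HBSS were fitted to a four-parameter Hill equation for percent inhibition and IC50.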

In experiment [2] the test system is osteoarthritic rats. Kind of experiment: Osteoarthritic (OA) pain induced by sodium monoiodoacetate (MIA), hind limb grip force. Type of experiment: in vivo, rat. The following applies: Rattus norvegicus, 480 h, rat, 20 days following MIA injection, hind limb grip force, read-out: OA MPE; for inhibition in vivo at 30 mg/kg: OA dose 30 mg/kg; for inhibition in vivo at 10 mg/kg: OA dose 10 mg/kg. How it is done: Osteoarthritic (OA) Pain Induced by Sodium Monoiodoacetate (MIA)
Pain behavior was assessed by measurement of hind limb grip force (GF) in adult osteoarthritic rats. Male Sprague Dawley rats, obtained from Charles River Laboratories, (Wilmington, Mass.), weighing 150-175 g, were injected in the unilateral knee join with a single intra-articular injection of sodium monoiodoacetate (MIA, 3 mg/rat). All rats were tested at 20 days following MIA injection. A behavioral measure of activity-induced pain was carried out. Measurements of the peak hind limb grip force were conducted by recording the maximum compressive force (CFmax), in grams of force, exerted on a hind limb strain gauge setup, in a commercially available grip force measurement system (Columbus Instruments, Columbus, Ohio).
During testing, each rat was gently restrained by grasping it around its rib cage and then allowed to grasp the wire mesh frame attached to the strain gauge. The experimenter then moved the animal in a rostral-to-caudal direction until the grip was broken. Each rat was sequentially tested twice at an approximately 2-3 minute interval to obtain a raw mean grip force (CFmax). This raw mean grip force data was in turn converted to a maximum hindlimb cumulative compressive force (CFmax), as the grams of force/kg of body weight, for each animal.
For evaluating the compound effects, the hind limb grip force was conducted 20 days following the intra-articular injection of MIA. A group of age-matched naïve (not injected with MIA) animals was added as a comparator to the drug-dosed groups. The vehicle control response for each group of MIA-treated animals was defined as the 0% response (0% effect), whereas the naïve control group was defined as the normal response and as 100% effect. The % effect for each dose group was expressed as % return of response to normalcy, compared to the naïve group. A percent maximal possible effect (% MPE) of testing compound was calculated according to the formula: (Treatment CFmax−Vehicle CFmax)/Vehicle CFmax]×100). Higher % effect numbers indicate increased relief from the pain in the model, with 100% indicating a return to the level of response seen in normal (non-osteoarthritic) animals. All experiments evaluating drug effects in this model were conducted in a randomized blinded fashion.
The animals were housed in Association for Assessment and Accreditation of Laboratory Animal Care (AAALAC) approved facilities at AbbVie Inc. in a temperature-regulated environment under a controlled 12-hour light-dark cycle, with lights on at 6:00 a.m. Food and water were available ad libitum at all times except during testing. All testing was done following procedures outlined in protocols approved by AbbVie Inc.'s Institutional Animal Care and Use Committee.

[3] abbreviates: HEK293 cells stably expressing recombinant human Nav1.7, veratridine + scorpion venom depolarization.

recombinant human Nav1.7, sequence (Q15858 whole entry): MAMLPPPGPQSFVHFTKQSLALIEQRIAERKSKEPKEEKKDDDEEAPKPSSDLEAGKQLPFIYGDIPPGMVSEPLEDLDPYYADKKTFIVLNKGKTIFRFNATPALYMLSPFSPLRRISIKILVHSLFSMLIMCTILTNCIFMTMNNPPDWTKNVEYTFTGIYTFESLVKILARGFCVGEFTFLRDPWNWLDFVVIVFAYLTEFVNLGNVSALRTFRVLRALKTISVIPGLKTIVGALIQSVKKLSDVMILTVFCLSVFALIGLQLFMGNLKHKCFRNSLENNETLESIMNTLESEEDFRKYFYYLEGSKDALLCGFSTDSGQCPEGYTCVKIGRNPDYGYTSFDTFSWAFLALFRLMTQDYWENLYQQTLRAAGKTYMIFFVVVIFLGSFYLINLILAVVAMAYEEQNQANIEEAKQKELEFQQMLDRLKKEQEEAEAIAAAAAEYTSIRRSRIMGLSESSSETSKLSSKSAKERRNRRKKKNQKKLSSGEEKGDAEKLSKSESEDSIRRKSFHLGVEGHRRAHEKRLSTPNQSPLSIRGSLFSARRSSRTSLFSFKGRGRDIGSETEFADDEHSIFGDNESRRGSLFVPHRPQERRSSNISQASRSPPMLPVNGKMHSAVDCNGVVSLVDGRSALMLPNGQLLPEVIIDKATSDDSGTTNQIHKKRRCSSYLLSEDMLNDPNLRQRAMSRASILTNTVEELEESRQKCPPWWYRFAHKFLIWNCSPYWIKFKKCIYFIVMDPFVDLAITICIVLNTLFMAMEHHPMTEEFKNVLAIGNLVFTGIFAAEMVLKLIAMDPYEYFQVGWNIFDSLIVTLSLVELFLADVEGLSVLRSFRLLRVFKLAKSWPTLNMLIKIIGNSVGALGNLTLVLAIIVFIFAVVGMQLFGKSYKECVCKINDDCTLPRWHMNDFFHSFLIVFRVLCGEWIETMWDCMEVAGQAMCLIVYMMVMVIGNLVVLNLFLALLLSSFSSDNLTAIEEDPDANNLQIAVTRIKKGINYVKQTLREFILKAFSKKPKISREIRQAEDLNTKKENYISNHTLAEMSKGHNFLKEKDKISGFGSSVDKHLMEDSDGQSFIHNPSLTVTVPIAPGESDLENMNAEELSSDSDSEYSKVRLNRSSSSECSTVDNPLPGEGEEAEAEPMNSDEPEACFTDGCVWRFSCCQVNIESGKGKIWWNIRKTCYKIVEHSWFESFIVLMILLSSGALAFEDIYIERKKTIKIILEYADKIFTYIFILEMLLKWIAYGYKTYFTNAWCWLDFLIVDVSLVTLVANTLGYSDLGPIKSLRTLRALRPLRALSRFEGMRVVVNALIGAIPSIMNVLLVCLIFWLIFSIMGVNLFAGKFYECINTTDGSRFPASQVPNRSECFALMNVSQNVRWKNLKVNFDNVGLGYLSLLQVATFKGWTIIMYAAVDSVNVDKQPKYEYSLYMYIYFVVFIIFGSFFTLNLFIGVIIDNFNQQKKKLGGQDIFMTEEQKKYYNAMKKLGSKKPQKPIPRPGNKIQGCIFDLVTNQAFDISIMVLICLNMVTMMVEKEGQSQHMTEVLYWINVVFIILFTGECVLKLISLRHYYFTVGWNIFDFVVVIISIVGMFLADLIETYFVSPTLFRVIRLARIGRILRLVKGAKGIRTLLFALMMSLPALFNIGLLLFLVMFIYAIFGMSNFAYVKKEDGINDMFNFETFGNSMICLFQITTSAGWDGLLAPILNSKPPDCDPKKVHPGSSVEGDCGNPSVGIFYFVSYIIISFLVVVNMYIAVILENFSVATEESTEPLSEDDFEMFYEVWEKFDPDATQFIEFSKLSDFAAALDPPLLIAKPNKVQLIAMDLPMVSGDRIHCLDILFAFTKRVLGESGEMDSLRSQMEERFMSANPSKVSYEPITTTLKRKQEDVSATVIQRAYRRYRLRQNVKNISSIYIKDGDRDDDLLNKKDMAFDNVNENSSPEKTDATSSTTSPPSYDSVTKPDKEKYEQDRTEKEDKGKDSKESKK

As a reminder, the IC50 is the concentration needed to halve the response being measured. Turning to `O=C(N[C@@H]1CCS(=O)(=O)C1)c1ccc2cc(Oc3ccc(C(F)(F)F)cn3)ccc2n1` [Example 5, N-[(3R)-1,1-dioxidotetrahydrothiophen-3-yl]-6-{[5-(trifluoromethyl)pyridin-2-yl]oxy}quinoline-2-carboxamide], the IC50 in experiment [1] (setting [3]) was 262 nM. Moreover, the inhibition in vivo at 30 mg/kg in experiment [2] was 27%.

As to `O=C(NCC1CCO1)c1ccc2cc(Oc3ccc(C(F)(F)F)cn3)ccc2n1` (stereo not drawn) [Example 37, N-(oxetan-2-ylmethyl)-6-{[5-(trifluoromethyl)pyridin-2-yl]oxy}quinoline-2-carboxamide], the concentration for half-maximal inhibition (IC50) in experiment [1] (setting [3]) came out at 392 nM. Moreover, in experiment [2], the inhibition in vivo at 10 mg/kg stood at 29%.

On to `O=C(NCCN1CCOCC1)c1ccc2cc(Oc3ccc(C(F)(F)F)cn3)ccc2n1` [Example 21, N-[2-(morpholin-4-yl)ethyl]-6-{[5-(trifluoromethyl)pyridin-2-yl]oxy}quinoline-2-carboxamide], for which, in experiment [1] (setting [3]), the IC50 worked out at 529 nM. In addition, the inhibition in vivo at 10 mg/kg in experiment [2] was determined as 35%.

Turning to `O=C(c1ccc2cc(Oc3ccc(OC(F)(F)F)cn3)ccc2n1)N1CCNCC1` [Example 431, piperazin-1-yl(6-{[5-(trifluoromethoxy)pyridin-2-yl]oxy}quinolin-2-yl)methanone], the inhibition in vivo at 30 mg/kg in experiment [2] is 73%.

As to `CC(=O)c1ccc(Oc2ccc3nc(C(=O)N4CCNCC4)ccc3c2)cc1` [Example 7, 1-(4-{[2-(piperazin-1-ylcarbonyl)quinolin-6-yl]oxy}phenyl)ethanone], the inhibition in vivo at 30 mg/kg in experiment [2] was 51%.

As to `CS(=O)(=O)C1CN(C(=O)c2ccc3cc(Oc4ccc(C(F)(F)F)cn4)ccc3n2)C1` [Example 29, [3-(methylsulfonyl)azetidin-1-yl](6-{[5-(trifluoromethyl)pyridin-2-yl]oxy}quinolin-2-yl)methanone], in experiment [2], the inhibition in vivo at 10 mg/kg came to 20%.

As for `O=C(N[C@H]1CS(=O)(=O)C[C@H]1O)c1ccc2cc(Oc3ccc(C(F)(F)F)nc3)ccc2n1` [Example 537, N-[(3R,4S)-4-hydroxy-1,1-dioxidotetrahydrothiophen-3-yl]-6-{[6-(trifluoromethyl)pyridin-3-yl]oxy}quinoline-2-carboxamide], the IC50 in experiment [1] (setting [3]) amounted to 2710 nM.

Consider `O=C(c1ccc2cc(Oc3ccc(C(F)(F)F)cn3)ccc2n1)N1CCC(F)(COc2ccncc2)C1` (stereo not drawn) [Example 489, {3-fluoro-3-[(pyridin-4-yloxy)methyl]pyrrolidin-1-yl}(6-{[5-(trifluoromethyl)pyridin-2-yl]oxy}quinolin-2-yl)methanone], for which the 50% inhibitory concentration (IC50) in experiment [1] (setting [3]) was found to be 1100 nM.

On to `CCCN(CCOC)C(=O)c1ccc2cc(Oc3ccc(C#N)cc3)ccc2n1` [Example 107, 6-(4-cyanophenoxy)-N-(2-methoxyethyl)-N-propylquinoline-2-carboxamide], for which the IC50 in experiment [1] (setting [3]) was 4120 nM.

Regarding `O=C(c1ccc2cc(Oc3ccc(C(F)(F)F)cn3)ccc2n1)N1C[C@H](O)C[C@@H](O)C1` [Example 395, [(3R,5R)-3,5-dihydroxypiperidin-1-yl](6-{[5-(trifluoromethyl)pyridin-2-yl]oxy}quinolin-2-yl)methanone], the concentration for half-maximal inhibition (IC50) in experiment [1] is above 20000 nM.

For `COCCOCC1(F)CCN(C(=O)c2ccc3cc(Oc4ccc(C(F)(F)F)cn4)ccc3n2)C1` (stereo not drawn) [Example 493, {3-fluoro-3-[(2-methoxyethoxy)methyl]pyrrolidin-1-yl}(6-{[5-(trifluoromethyl)pyridin-2-yl]oxy}quinolin-2-yl)methanone], in experiment [1] (setting [3]), the IC50 is 802 nM.

Take `O=C(c1ccc2cc(Oc3ccc(C(F)(F)F)cn3)ccc2n1)N1C[C@@H](F)C[C@@H]1c1cc(F)ccc1F` [Example 179, [(2R,4S)-2-(2,5-difluorophenyl)-4-fluoropyrrolidin-1-yl](6-{[5-(trifluoromethyl)pyridin-2-yl]oxy}quinolin-2-yl)methanone]: the IC50 in experiment [1] (setting [3]) was 684 nM.

For `O=C(NCC1CN(C(=O)c2ccc3cc(Oc4ccc(C(F)(F)F)cn4)ccc3n2)CC1F)OCc1ccccc1` (stereo not drawn) [Example 492, benzyl ({4-fluoro-1-[(6-{[5-(trifluoromethyl)pyridin-2-yl]oxy}quinolin-2-yl)carbonyl]pyrrolidin-3-yl}methyl)carbamate], in experiment [1] (setting [3]), the IC50 was determined as 858 nM.

For `CC(C)(C)N1CCN(C(=O)c2ccc3cc(Oc4ccc(C(F)(F)F)cn4)ccc3n2)CC1` [Example 228, (4-tert-butylpiperazin-1-yl)(6-{[5-(trifluoromethyl)pyridin-2-yl]oxy}quinolin-2-yl)methanone], the concentration for half-maximal inhibition (IC50) in experiment [1] (setting [3]) worked out at 1150 nM.

Turning to `CC(NC(=O)c1ccc2cc(Oc3ccc(C(F)(F)F)cn3)ccc2n1)C(=O)N(C)C` (stereo not drawn) [Example 579, N-[1-(dimethylamino)-1-oxopropan-2-yl]-6-{[5-(trifluoromethyl)pyridin-2-yl]oxy}quinoline-2-carboxamide], in experiment [1] (setting [3]), the IC50 was 1690 nM.

Consider `CC(C)C(CO)NC(=O)c1ccc2cc(Oc3ccc(C#N)cc3)ccc2n1` (stereo not drawn) [Example 95, 6-(4-cyanophenoxy)-N-(1-hydroxy-3-methylbutan-2-yl)quinoline-2-carboxamide], for which, in experiment [1] (setting [3]), the concentration for half-maximal inhibition (IC50) stood at 4870 nM.

On to `O=C(c1ccc2cc(Oc3ccc(C(F)(F)F)cn3)ccc2n1)N1CC(Oc2ccc(Cl)cc2)C1` [Example 203, [3-(4-chlorophenoxy)azetidin-1-yl](6-{[5-(trifluoromethyl)pyridin-2-yl]oxy}quinolin-2-yl)methanone], for which the half-inhibitory concentration (IC50) in experiment [1] (setting [3]) is above 20000 nM.

As for `CC(C)(O)c1ccc(Oc2ccc3nc(C(=O)N4CCNCC4)ccc3c2)cc1` [Example 209, {6-[4-(2-hydroxypropan-2-yl)phenoxy]quinolin-2-yl}(piperazin-1-yl)methanone], the IC50 in experiment [1] (setting [3]) stood at 8860 nM.

Take `O=C(c1ccc2cc(Oc3ccc(C(F)(F)F)cn3)ccc2n1)N1CCC(CO)C1` (stereo not drawn) [Example 266, [3-(hydroxymethyl)pyrrolidin-1-yl](6-{[5-(trifluoromethyl)pyridin-2-yl]oxy}quinolin-2-yl)methanone]: the IC50 in experiment [1] (setting [3]) stood at 5760 nM.

As to `O=C(c1ccc2cc(Oc3ccc(C(F)(F)F)cn3)ccc2n1)N1CC2OCOC2C1` (stereo not drawn) [Example 478, tetrahydro-5H-[1,3]dioxolo[4,5-c]pyrrol-5-yl(6-{[5-(trifluoromethyl)pyridin-2-yl]oxy}quinolin-2-yl)methanone], in experiment [1] (setting [3]), the IC50 worked out at 5940 nM.

For `O=C(c1ccc2cc(Oc3ccc(C(F)(F)F)cn3)ccc2n1)N1CCNCC(F)C1` (stereo not drawn) [Example 406, (6-fluoro-1,4-diazepan-1-yl)(6-{[5-(trifluoromethyl)pyridin-2-yl]oxy}quinolin-2-yl)methanone], the 50% inhibitory concentration (IC50) in experiment [1] (setting [3]) was 1060 nM.

Regarding `O=C(c1ccc2cc(Oc3ccc(C(F)(F)F)cn3)ccc2n1)N1C[C@H](CO)C[C@H](CO)C1` [Example 307, [cis-3,5-bis(hydroxymethyl)piperidin-1-yl](6-{[5-(trifluoromethyl)pyridin-2-yl]oxy}quinolin-2-yl)methanone], the half-inhibitory concentration (IC50) in experiment [1] (setting [3]) was 14600 nM.

Regarding `CC(C)OC(=O)N1CCN(C(=O)c2ccc3cc(Oc4ccc(C(F)(F)F)cn4)ccc3n2)CC1` [Example 277, isopropyl 4-[(6-{[5-(trifluoromethyl)pyridin-2-yl]oxy}quinolin-2-yl)carbonyl]piperazine-1-carboxylate], the half-inhibitory concentration (IC50) in experiment [1] (setting [3]) turned out to be 3090 nM.

Consider `O=C(c1ccc2cc(Oc3ccc(C(F)(F)F)cn3)ccc2n1)N1CCC(F)(F)C1` [Example 404, (3,3-difluoropyrrolidin-1-yl)(6-{[5-(trifluoromethyl)pyridin-2-yl]oxy}quinolin-2-yl)methanone], for which, in experiment [1] (setting [3]), the IC50 stood at 1950 nM.

For `N#Cc1ccc(Oc2ccc3nc(C(=O)N4CCS(=O)(=O)CC4)ccc3c2)cc1` [Example 148, 4-({2[(1,1-dioxidothiomorpholin-4-yl)carbonyl]quinolin-6-yl}oxy)benzonitrile], the IC50 in experiment [1] (setting [3]) is 12100 nM.

For `O=C(c1ccc2cc(Oc3ccc(C(F)(F)F)cn3)ccc2n1)N1CCN(c2ncccn2)CC1` [Example 270, [4-(pyrimidin-2-yl)piperazin-1-yl](6-{[5-(trifluoromethyl)pyridin-2-yl]oxy}quinolin-2-yl)methanone], the concentration for half-maximal inhibition (IC50) in experiment [1] (setting [3]) stood at 3080 nM.

On to `Cn1cc(S(=O)(=O)N2CCN(C(=O)c3ccc4cc(Oc5ccc(C(F)(F)F)cn5)ccc4n3)CC2)cn1` [Example 387, {4-[(1-methyl-1H-pyrazol-4-yl)sulfonyl]piperazin-1-yl}(6-{[5-(trifluoromethyl)pyridin-2-yl]oxy}quinolin-2-yl)methanone], for which the IC50 in experiment [1] (setting [3]) was found to be 2480 nM.
